Like-named read-outs stand apart in the source and are kept apart here.
Experiments:
[1] = test system: VEEV (1CSH3); experiment: microbe, parasite or virus in culture; format: cell-based, Venezuelan equine encephalomyelitis virus; conditions: for EC50: Venezuelan equine encephalitis virus, HeLa, 20 h
[2] = test system: MARV (Ci67); experiment: microbe, parasite or virus in culture; format: cell-based, Lake Victoria marburgvirus
[3] = test system: RVFV strain MP12; experiment: microbe, parasite or virus in culture; format: cell-based, Rift Valley fever virus; conditions: for EC50: Rift Valley fever virus, HeLa, 24 h
[4] = in vitro; conditions: human
[5] = test system: Golgi complex in HeLa-G cells; experiment: cells; format: cell-based, human; conditions: for EC50: Homo sapiens, 12 h, read-out: GC50 (effective concentration of compound that disrupts 50% of the Golgi complexes)
[6] = test system: LASV (Josiah); experiment: microbe, parasite or virus in culture; format: cell-based, Lassa virus; conditions: for EC50: Mammarenavirus lassaense, HeLa, 24 h
[7] = in vitro; conditions: human; remark: listed apart in the source
[8] = test system: RVFV strain MP12; format: cell-based, Rift Valley fever virus
[9] = test system: EBOV (Zaire); experiment: microbe, parasite or virus in culture; format: cell-based, Zaire ebolavirus
[10] = test system: RVFV; experiment: microbe, parasite or virus in culture; format: cell-based; conditions: Rift Valley fever virus, SAEC, 24 h
[11] = test system: tubulin / microtubule organization in HeLa cells; format: cell-based, human
[12] = test system: RVFV RNA; format: cell-based, Rift Valley fever virus
[13] = test system: HeLa cells expressing H3-pS10
[14] = test system: HeLa cells
[15] = Orthomarburgvirus marburgense, HeLa, 48 h

Row | SMILES | EC50 [1] | EC50 [2, 15] | EC50 [3] | %GNL (lowest % of Golgi number achievable at the compound's highest concentration) [5] | EC50 [5] | EC50 [6] | CC50 [7] | reduction of N and Gn expression [8] | time of compound addition PI at which 50% of infection is rescued/recovered [8] | EC50 ([9]; Zaire ebolavirus, HeLa, 48 h) | EC50 [10] | also measured
1 | CC1(C(=O)NCc2ccccc2)Cn2c(cc3occc32)C(=O)N1Cc1ccc(Cl)cc1 (centres unmarked) [C795-0925] | 10.2 µM | 57.4 µM | 14.4 µM | 63.4% | 36.9 µM | 81.4 µM | 111 µM | significantly reduced | 9 h | 46.6 µM | 12.3 µM | antiviral activity against VEEV in secondary screening (heat map) [1]: highest activity; antiviral activity against MARV in secondary screening (heat map) [2]: moderate antiviral activity; antiviral activity against RVFV in secondary screening (heat map) [3]: highest activity; CC50 [4]: 56.7 µM; antiviral activity against LASV in secondary screening (heat map) [6]: moderate antiviral activity; antiviral activity against EBOV in secondary screening (heat map) [9]: moderate antiviral activity
2 | NC(=O)c1ncn([C@@H]2O[C@H](CO)[C@@H](O)[C@H]2O)n1 [Ribavirin, ribavirin, reference compound] | 75 µM | 82.2 µM | 27.2 µM | 87.2% |  | 6.8 µM |  |  |  | 60.1 µM | 29.5 µM | 
3 | COc1ccc(CN2C(=O)C(=O)c3cc(C)ccc32)cc1 [D011-2120] | 41.6 µM | 87.1 µM | 61.5 µM | 16.4% | 38.2 µM | 46.8 µM | 98 µM | ~10% | > 10 h | 54.1 µM | 62.4 µM | antiviral activity against VEEV in secondary screening (heat map) [1]: high activity; antiviral activity against MARV in secondary screening (heat map) [2]: high activity; antiviral activity against RVFV in secondary screening (heat map) [3]: moderate activity; antiviral activity against LASV in secondary screening (heat map) [6]: moderate activity; tubulin ridge value relative to BFA- or mock-treated cells [11]: approximately half; viral RNA accumulation in the supernatants [12]: 9%; viral RNA accumulation inside the cells [12]: 75%; reduction of S-Gn (cell surface exposed Gn) expression [8]: approximately 90%; number of cells expressing H3-pS10 (mitotic cells) vs mock-treated [13]: significant increase; concentration above which compound was toxic to the cells ([13]; human): > 25 µM; antiviral activity against EBOV in secondary screening (heat map) [9]: high activity
4 | COC(=O)Nc1nc2ccc(C(=O)c3cccs3)cc2[nH]1 [nocodazole, reference compound] |  |  |  |  |  |  |  |  |  |  |  | tubulin ridge value relative to BFA- or mock-treated cells [11]: approximately half; number of cells expressing H3-pS10 (mitotic cells) vs mock-treated [13]: significant increase
5 | COc1ccccc1CNC(=O)C1c2c(n(C)c3ccccc23)SCC(=O)N1c1ccc(OC)c(OC)c1 (centres unmarked) [G202-0362] | 48.9 µM | 34 µM | 13.6 µM | 61.2% | 23.7 µM |  |  | ~10% | > 10 h | 16 µM | 11.9 µM | toxic effects on the HeLa cells [14]: no toxic effects; EC50 [2]: 34.1 µM; viral RNA accumulation in the supernatants [12]: 28%; viral RNA accumulation inside the cells [12]: 95%; reduction of S-Gn (cell surface exposed Gn) expression [8]: approximately 90%; effects on cell division in uninfected cells [13]: no observable effects; EC50 [9]: 16.1 µM
6 | Cc1ccc(NC(=O)Nc2cc(NC(=O)c3ccc(F)cc3)ccc2N2CCCC2)c(Cl)c1 [F694-1532] | 15.2 µM | 143 µM | 20 µM | 19.5% | 35.3 µM | 80.4 µM | 51.3 µM | significantly reduced | 8 h | 118 µM | 23.5 µM | 
7 | Cl.N [NH4Cl, reference compound] |  |  |  |  |  |  |  |  |  |  |  | RVFV infection inhibition when added 2 h PI [8]: not at the later time point; RVFV infection inhibition when added at early time points (−2 h or 0 h) [8]: inhibited RVFV infection
